# Entries after “also recorded” stand apart in the source; their conditions may differ. Read-outs that look alike come from different tables or passages of the source. Peptide text beside a SMILES is read from it. * marks the point of attachment. Cbz = O=C(OCc1ccccc1)*
# Experiments:
# [1] = test system: healthy human volunteers; settings: i.v. infused for 1 hour; cited from earlier work
# [2] = test system: WT and UBE3A KO human induced neurons; assay: Whole cell patch clamp recordings of human induced neurons (fAHP amplitude, AP firing frequency); assay type: cell-based
# [3] = test system: neurons of WT and UBE3A KO cortical organoids; assay: Whole cell and perforated patch clamp recordings of neurons in human cortical organoids; assay type: cell-based; settings: for changes in neuronal excitability, fAHP, and network hyperactivity and synchronization in human cortical organoids from UBE3A knockout stem cells: summary statement
# Method: Cortical organoids were generated based on a published protocol (Pasca et al., Nat Methods 12, 671-678 (2015)) with minor modifications. hPSCs were dissociated to single cells by TrypLE Express (Thermofisher) and seeded into U-shaped ultra-low attachment 96-well plate (Corning) at a density of 6K cells/well in the presence of thiazovivin (5 μM, Tocris). After spheroid formation, media were completely changed to Neural Induction Media (NIM: DMEM/F12 (Nacalai Tesque), 20% KnockOut Serum Replacement (Thermofisher), 1% minimum essential media-nonessential amino acid (Thermofisher), 1% GlutaMax (Thermofisher), 1% Antibiotic-Antimycotic (Thermofisher), 0.1% β-mercaptoethanol (Thermofisher), 5 μM Dorsomorphin (Tocris), 10 μM SB431542 (Stemgent)) for the next 6 days, with media change every other day. Starting day 7, media were changed to Neural Growth Media (NGM: Neurobasal (Thermofisher), 1:50 B27 without vitamin A (Thermofisher), 1% GlutaMAX (Thermofisher), 1% Antibiotic-Antimycotic (Thermofisher), 20 ng/ml EGF (PeproTech), 20 ng/ml FGF-basic (PeproTech)) for the next 18 days, with media change every other day. Starting day 25, organoids were transferred out of 96-well plates to 6-well plates (6-8 organoids per well), cultured in Organoid Media I (OMI: Neurobasal (Thermofisher), 1:50 B27 without vitamin A (Thermofisher), 1% GlutaMax (Thermofisher), 1% Antibiotic-Antimycotic (Thermofisher), 10 mM HEPES (Thermofisher), 10 ng/ml BDNF (PeproTech), 10 ng/ml NT3 (PeproTech)) until day 100 on an orbital shaker (75 rev/min). After day 100, media were changed to Organoid Media II (OMII: BrainPhys (Stemcell Technologies), 1:50 SM1 (Stemcell Technologies), 1% GlutaMax (Thermofisher), 1% Antibiotic-Antimycotic (Thermofisher), 10 mM HEPES (Thermofisher), 10 ng/ml BDNF (PeproTech), 10 ng/ml GDNF (PeproTech), 10 ng/ml NT3 (PeproTech), 100 μM db-cAMP (Sigma)).
# (§1) Whole cell patch clamp recordings of neurons in the organoid (wholemount) and acute mouse hippocampal slices were performed in a recording chamber (RC-26GLP, Warner Instruments) and submerged under continuously perfused artificial CSF (aCSF) containing (in mM): 119 NaCl, 2.5 KCl, 11 glucose, 26 NaHCO3, 1.25 NaH2PO4, 2.5 CaCl2 and 2 MgCl2 saturated with 95% O2 and 5% CO2 at 30-32° C. Neuronal intrinsic excitability was measured in the presence of CNQX (20 μM, Tocris) and APV (50 μM, Tocris) to block all excitatory synaptic responses. We targeted neurons near the surface of organoids with reasonably pyramidal-shaped cell bodies under our DIC/IR camera. […] Signals were recorded using a MultiClamp 700B amplifier, filtered at 2 kHz using a Bessel filter, and digitized at 40 kHz with a Digidata 1550B analog-to-digital (A/D) board (Molecular Devices, Sunnyvale, Calif.). […]
# [4] = test system: BK protein level in HEK293 cells; assay: BK protein level in HEK293 cells overexpressing UBE3A (immunoblotting); assay type: cell-based, human; settings: proteasome inhibitor 1 μM
# Method: Induced neurons or cortical organoids were lysed in RIPA buffer supplemented with protease and phosphatase inhibitor cocktails. Protein samples were loaded onto 8-12% Bis-TRIS (NP0322BOX Invitrogen) and were transferred onto a PVDF membrane. After blocking with 5% milk in TBS-T buffer for 1 hour, PVDF membranes were incubated with primary antibodies overnight at 4° C., followed by 1-hour incubation with mouse or rabbit HRP antibody (1:2000, Invitrogen) at RT. Images were visualized by either chemiluminescence or NIR fluorescent detection using c600 Imaging System (Azure Biosystems Inc). HEK293 cells were grown in DMEM (Sigma) containing 10% FBS (Gibco) and 100 U/mL penicillin-streptomycin (Gibco) in a 5% CO2 incubator. Cells were transfected with a Lipofectamine PLUS (Invitrogen), subsequently were treated with 1 μM of MG132 (A.G Scientific) for another 24 h. Next, cells were lysed in PBS containing 1% SDS (Invitrogen), 1 mM PMSF (USB), 10 μg/ml aprotinin (Roche), and 1% (v/v) phosphatase inhibitor cocktail 2 and 3 (Sigma).
# [5] = test system: WT and Ube3a m-/p+ mice; assay: In vivo local field potential (LFP) recording in freely moving mice; parameters: species or system mouse; settings: paxilline 0.35 mg/kg, 4 times with 1-hour interval
# Method: […]. Eye cream was applied to a mouse to protect the eye from drying due to anaesthesia. 2% lidocaine was injected under the scalp and subsequently scalp was removed to expose the skull. […] Stereotrodes were made with platinum-iridium wire (90%:10%, A-M system) and unilaterally implanted into BIC. Stainless steel screw (AP: 2 mm, Lateral: 2 mm) was used as a reference electrode. Iodopavidone was applied for disinfection around the surgical area after dental cement mounting. Mice were maintained on a heating pad at 37° C. until waking from the anaesthesia before putting back to home cages. LFP recordings were performed on the mice 5 days after surgery. LFP recordings were conducted in a copper-Faraday chamber. For evoked LFP, auditory stimulus (˜125 dB, 500 Hz) was provided by a speaker (EKX, Electro-Voice) driven by a customized program in Matlab. LFP was recorded with sampling rate at 500 Hz and filtered with 0.5 Hz high-pass and 100 Hz low-pass by EEG/EMG recording system (Pinnacle). […] Video was recorded simultaneously for further analysis. After all recordings, mice were sacrificed, and their brains were isolated and fixed using 4% PFA in PBS and the implanted electrode locations were confirmed by either bright field imaging or DAPI staining and subsequent fluorescence imaging.
# [6] = test system: WT and KO mice
# [7] = test system: WT and UBE3A KO cortical organoids; assay: Two-photon calcium imaging of cortical organoids; assay type: cell-based, human; settings: paxilline 10 μM
# [8] = test system: hippocampal neurons of WT and Ube3a m-/p+ mice; assay: Whole cell patch clamp recordings in acute mouse hippocampal slices; assay type: cell-based; settings: paxilline, postnatal day 28
# Method: as §1
# For fAHP analysis in all recordings, automatic detection and calculation was conducted by customized matlab scripts adapted from published algorithm (Bean, Nat Rev Neurosci 8, 451-465 (2007); Platkiewicz and Brette, PLoS Comput Biol 6, e1000850 (2010); Yu et al., J Neurosci 28, 7260-7272 (2008)). […] The fAHP amplitude of each neuron was calculated by averaging the fAHP of the first spike in all current injection steps. […]
# [9] = test system: WT and Ube3a m-/p+ mice; assay type: in vivo, mouse; settings: for seizure grade based on Racine's scale: no paxilline
# Method: […]. Seizure severity of mice was dependent on multiple variables such as picrotoxin dose, mice age, and their body weights. […] Videos were recorded for all the behavioural experiments. Behavioral analysis was performed in a double-blind manner with littermates (siblings of wild-type (Ube3a^m+/p+) and maternal knockout (Ube3a^m−/p+) mice that produced from same pairs of Ube3a^m+/p− females and Ube3a^m+/p+ males).
# [10] = test system: WT and Ube3a m-/p+ mice; assay: Flurothyl-induced seizures; assay type: in vivo, mouse; settings: paxilline pre-treatment 0.35 mg/kg i.p.; flurothyl 100 μl/min
# Excerpt: Chamber was cleaned and the tissue paper was replaced before each new trial.
compound,measurement,setting,value
"CCCNc1nc(NCCC)nc(N(C)OC)n1 [GAL-021, 2-N-methoxy-2-N-methyl-4-N,6-N-dipropyl-1,3,5-triazine-2,4,6-triamine]",tolerated i.v. infusion dosage,[1],0.1 to 0.96 mg/kg/h
same,fAHP amplitude in KO hINs,"[2]; GAL-021 50 μM or 100 μM, KO neurons",lowered
same,fAHP amplitude (and AP firing frequencies) in WT hINs,"[2]; GAL-021 50 μM or 100 μM, WT neurons",did not change; also recorded: did not affect
same,spike frequency and fAHP in KO neurons compared with WT hINs,[2]; GAL-021 100 μM,Restoration
same,fAHP amplitude in KO hINs,"[2]; GAL-021 200 μM, KO neurons",not significantly different from that of 100 μM
same,fAHP amplitude in KO hINs,"[2]; GAL-021 200 μM, KO neurons, listed as GAL021",normalized fAHP
same,fAHP amplitude in WT hINs,"[2]; GAL-021 200 μM, WT neurons",lowered
same,fAHP amplitude in WT hINs,"[2]; GAL-021 200 μM, WT neurons, listed as GAL021",decreased fAHP
same,differences in fAHP amplitude and AP firing frequency between KO and WT neurons,[2]; GAL-021 50 or 100 μM,normalized
same,intrinsic excitability associated with augmented fAHP in UBE3A-deficient human neurons,"[2]; GAL-021 application (50, 100, 200 μM tested)",returns to normal
same,"changes in neuronal excitability, fAHP, and network hyperactivity and synchronization in human cortical organoids from UBE3A knockout stem cells",[3],normalized
CC(C)C[C@@H](C=O)NC(=O)[C@H](CC(C)C)NC(=O)[C@H](CC(C)C)NC(=O)OCc1ccccc1 [MG312] (Cbz-Leu-Leu-Leu-aldehyde),decrease in the BK protein level caused by UBE3A coexpression,[4],abolished
"CC(C)(O)[C@H]1O[C@H]2CC[C@@]3(C)[C@@](O)(CC[C@H]4Cc5c([nH]c6ccccc56)[C@@]43C)C2=CC1=O [Paxilline, (2R,4bS,6aS,12bS,12cR,14aS)-4b-hydroxy-2-(1-hydroxy-1-methylethyl)-12b,12c-dimethyl-5,6,6a,7,12,12b,12c,13,14,14a-decahydro-2H-chromeno[5′,6′:6,7]indeno[1,2-b]indol-3(4bH)-one]",enhancement in the delta band (1-4 Hz) of LFP in Ube3a m-/p+ mice,[5],normalized
same,seizures caused by paxilline,"[6]; 10 mg/kg paxilline, WT and KO mice",caused seizures
same,tremor in WT mice,"[6]; paxilline 3 mg/kg compared to 0.35 mg/kg, WT mice",induced tremor
same,tremor in KO mice,"[6]; paxilline 3 mg/kg, KO mice",not evident
same,frequencies and amplitudes of calcium transients in the organoids,[7],decreased both the frequencies and the amplitudes
same,higher levels of network synchronization in KO and AS iPSC-derived organoids,[7],abolished
same,changes in excitability and higher fAHP in neurons from Ube3a m-/p+ mice,[8],normalized
same,seizure susceptibility in KO mice,"[9]; paxilline high dose 3 mg/kg, KO mice",responded positively
same,seizure susceptibility in WT mice,"[9]; paxilline high dose 3 mg/kg, WT mice",increased seizure susceptibility
same,seizure grade of Ube3a m-/p+ mice versus WT mice,"[9]; paxilline pre-treatment 0.35 mg/kg i.p., picrotoxin 3 mg/kg i.p.",normalize
same,reduction in the latency to myoclonic seizure in Ube3a m-/p+ mice,[10],normalized
same,differences in fAHP amplitude and AP firing frequency between KO and WT neurons,[2]; 5 μM paxilline,normalized
same,excitability and fAHP in KO neurons,"[2]; 5 μM paxilline, KO neurons",successfully restored excitability and fAHP to WT levels
same,fAHP in WT neurons,"[2]; 20 μM paxilline, WT neurons",significantly lowered fAHP
same,fAHP in WT neurons,"[2]; paxilline 5 μM, WT neurons",did not significantly reduce the fAHP
same,augmented neuronal excitability and fAHP changes in neurons of KO organoids,"[3]; paxilline 10 μM, KO organoids",normalized
same,spontaneous burst firing in neurons of UBE3A KO organoids,"[3]; paxilline 10 μM, perforated patch recordings, KO organoids",completely converted spontaneous burst firing into single AP firing
same,"changes in neuronal excitability, fAHP, and network hyperactivity and synchronization in human cortical organoids from UBE3A knockout stem cells",[3],normalized
picrotoxin,seizure grade based on Racine's scale,"[9]; picrotoxin 3 mg/kg i.p., Ube3a m-/p+ mice",5 grade
same,seizure grade based on Racine's scale,"[9]; picrotoxin 3 mg/kg i.p., WT mice",1-2 grade

# Source: patent US20230042176A1, “METHOD FOR TREATING ANGELMAN SYNDROME AND RELATED DISORDERS” (priority 2019, published 2023)
